MIC50, Activity and IC50 data for one compound are collected here from ChEMBL document CHEMBL5143523, “Construction and activity evaluation of novel benzodioxane derivatives as dual-target antifungal inhibitors” (Eur J Med Chem, 2022).

Values after ≈ are worked out from the molar mass of the structure shown. Active and inactive are the calls of the source. The rule behind the calls is not given here.

One data set has as its system Pichia kudriavzevii. As to the kind of experiment: Antifungal activity against Candida krusei ATCC 6258 assessed as fungal growth inhibition measured after 72 hrs by CLSI protocol based liquid medium dilution method. The class given is functional.
For the next data set, the system named is Nakaseomyces glabratus. As to the kind of experiment: Antifungal activity against Candida glabrata ATCC 0001 assessed as fungal growth inhibition measured after 72 hrs by CLSI protocol based liquid medium dilution method. The class given is functional.
For a further data set, the system named is Aspergillus fumigatus. As to the kind of experiment: Antifungal activity against Aspergillus fumigatus KM8001 assessed as fungal growth inhibition measured after 72 hrs by CLSI protocol based liquid medium dilution method. The class given is functional.
The subject of data set [1] is Candida albicans. As to the kind of experiment: Antifungal activity against fluconazole resistant Candida albicans strain 103 assessed as fungal growth inhibition measured after 72 hrs by CLSI protocol based liquid medium dilution method. The class given is functional.
The test system of data set [2] is Candida albicans. As to the kind of experiment: Antifungal activity against fluconazole resistant Candida albicans strain 904 assessed as fungal growth inhibition measured after 72 hrs by CLSI protocol based liquid medium dilution method. The class given is functional.
In data set [3] the test system is Candida albicans. As to the kind of experiment: Induction of apoptosis in Candida albicans ATCC SC5314 cells assessed as early apoptotic cells at 8 ug/ml incubated for 72 hrs by Annexin V-FITC/PI staining based flow cytometry method (reference value: 0.56%). The class given is functional. The note with it: dose 8 µg/ml.
The test system of data set [4] is Candida albicans. As to the kind of experiment: Induction of apoptosis in Candida albicans ATCC SC5314 cells assessed as necrotic cells at 8 ug/ml incubated for 72 hrs by Annexin V-FITC/PI staining based flow cytometry method (reference value: 3.76%). The class given is functional. To be noted: dose 8 µg/ml.
The test system of data set [5] is Candida albicans. As to the kind of experiment: Antifungal activity against Candida albicans ATCC SC5314 assessed as change in eburicol level at 4 ug/ml incubated for 48 hrs by LC-MS analysis (reference value: 1.4%). The class given is functional. To be noted: dose 4 µg/ml.
For data set [6], the target named is Lanosterol 14-alpha demethylase (Candida albicans (strain SC5314 / ATCC MYA-2876) (Yeast), UniProt P10613). As to the kind of experiment: Inhibition of CYP51 in Candida albicans ATCC SC5314 incubated for 30 mins using eburicol as substrate in presence of NADPH by HPLC analysis.
Sequence of Lanosterol 14-alpha demethylase (P10613 whole entry): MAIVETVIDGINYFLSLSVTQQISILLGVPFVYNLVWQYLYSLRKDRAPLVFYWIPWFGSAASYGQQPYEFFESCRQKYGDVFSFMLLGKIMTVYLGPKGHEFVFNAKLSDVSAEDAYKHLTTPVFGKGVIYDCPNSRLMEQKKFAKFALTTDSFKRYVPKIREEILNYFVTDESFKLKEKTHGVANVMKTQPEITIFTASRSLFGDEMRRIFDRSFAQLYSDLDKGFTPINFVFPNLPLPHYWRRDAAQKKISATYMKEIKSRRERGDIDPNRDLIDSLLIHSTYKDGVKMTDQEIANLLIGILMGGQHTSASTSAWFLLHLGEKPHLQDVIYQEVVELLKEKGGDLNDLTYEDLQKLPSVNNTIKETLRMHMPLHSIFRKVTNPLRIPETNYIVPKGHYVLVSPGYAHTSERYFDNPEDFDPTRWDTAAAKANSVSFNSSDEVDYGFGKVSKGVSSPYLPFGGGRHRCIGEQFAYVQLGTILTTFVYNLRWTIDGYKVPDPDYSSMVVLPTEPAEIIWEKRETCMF
Data set [7] can be described thus: Hepatotoxicity in mouse infected with Candida albicans ATCC SC5314 assessed as change in plasma ALT level at 4 mg/kg, ip administered ever other day for 12 days. Format: toxicity, organism-based. The note with it: in vivo, 288 h, time 12 day.
The nature of data set [8]: Nephrotoxicity in mouse infected with Candida albicans ATCC SC5314 assessed as change in plasma BUN level at 4 mg/kg, ip administered ever other day for 12 days. The class given is toxicity, organism-based. The note with it: in vivo, 288 h, time 12 day.
For data set [9], the system named is Candida albicans. As to the kind of experiment: Antifungal activity against fluconazole resistant Candida albicans strain 901 assessed as decrease in fungal cell density at 4 ug/ml by fluorescence microscopy. Format: functional, organism-based. The note with it: dose 4.0 µg/ml.
For data set [10], the system named is Candida albicans. As to the kind of experiment: Induction of morphological changes in Candida albicans assessed as structural damage in fungal cell wall at 4 ug/ml measured after 48 hrs by TEM analysis. Format: functional, organism-based. To be noted: dose 4.0 µg/ml.
In the next data set the test system is Mus musculus. As to the kind of experiment: In vivo antifungal activity against Candida albicans ATCC SC5314 infected mouse model assessed as reduction in nuclear aggregation at 4 mg/kg, ip administered ever other day for 12 days by hematoxyin-eosin staining based microscopic analysis. Format: functional, organism-based. The note with it: time 12.0 day.

As to `CC(C)[C@H](NC(=O)c1cccc2c1OCCO2)C(=O)N[C@@H](Cn1cncn1)c1ccccc1`, the MIC50 in the data set on Pichia kudriavzevii amounted to 0.25 µg/mL (≈ 0.556 µM); in the data set on Nakaseomyces glabratus it was 0.25 µg/mL (≈ 0.556 µM); in the data set on Aspergillus fumigatus it was 2 µg/mL (≈ 4.45 µM); in the data set on Candida albicans [1] it was 0.5 µg/mL (≈ 1.11 µM); with Candida albicans [2], 2 µg/mL (≈ 4.45 µM). The Activity with Candida albicans [3] stood at 0.41%; in the data set on Candida albicans [4] it was 43.31%; in the data set with Candida albicans [5] it was 28.9%; in [7] it was 50.5 IU/L; in [8], 15.8 mmol/L. Also, the IC50 in [6] was found to be 220 nM. Further, the outcome with Candida albicans [9], with Candida albicans [10] and in the data set with Mus musculus was Active.
